Values joined by “and” are separate entries in the source; they are usually repeats but may differ in a detail not shown here. Identical values can stand only once. Counter-ions that a name gives are not always drawn.
Experiment: Food and acidic beverage effect on bioavailability of ATR-101 tablets, 3-way crossover plasma PK study
Assay type: in vivo, human
Settings: single oral 500 mg; for kel: in h-1
Experimental: To evaluate the effects of food and of an acidic beverage on bioavailability of ATR-101 tablets prepared according to Example 2 (see Table 2), an open-label, randomized, 3-period, 3-way crossover, 3-sequence study was carried out with fourteen healthy, adult, non-tobacco using male and female (non-childbearing potential only) human subjects.
Three different treatments A, B, and C were administered as follows:
Treatment A: 500 mg ATR-101 (1×500 mg tablet) administered with water at Hour 0 on Day 1 following an overnight fast.
Treatment B: 500 mg ATR-101 (1×500 mg tablet) administered with water at Hour 0, 30 minutes after the start of a high-fat breakfast, on Day 1.
Treatment C: 500 mg ATR-101 (1×500 mg tablet) administered with Coca-Cola® Classic at Hour 0 on Day 1 following an overnight fast.
On Day 1 of Period 1, subjects were randomized to one of 3 treatment sequences: ABC, BCA, or CBA. For Treatments A and B, ATR-101 was administered orally with approximately 240 mL of water. For Treatment C, ATR-101 was administered orally with approximately 240 mL of Coca-Cola® Classic. Water (except water provided with dosing for Treatments A and B) was restricted 1 hour prior to and 1 hour after each study drug administration, but was allowed ad libitum at all other times. Other fluids were given as part of the standard meals (including the breakfast administered prior to study drug dosing for Treatment B) and/or snacks, but were restricted at all other times (except for the Coca-Cola® Classic beverage provided with dosing in Treatment C) throughout the confinement period.
For Treatments A and C, subjects fasted overnight for at least 10 hours prior to study drug administration and continued the fast for at least 4 hours post-dose.
For Treatment B, subjects were required to fast overnight for at least 10 hours until 30 minutes prior to study drug administration, when they were given breakfast which was entirely consumed within 30 minutes. A representative breakfast includes 2 slices of buttered toast, 2 fried eggs, 2 strips of bacon, 4 oz of hash brown potatoes, and 240 mL of whole milk.
On Day 1 of each period, a standard lunch and dinner was provided at approximately 4 and 9 hours post-dose, respectively, and a snack was also offered at approximately 12 hours post-dose. On other days when confined in the CRU, standard meals and/or snacks were provided at appropriate times. When confined, subjects were required to fast from all food and drink except water between meals and snacks served at the clinical research unit.
Each meal and/or snack served at the clinical research unit was standardized and was similar in caloric content and composition (except for the meal served as part of Treatment B) and was taken at approximately the same time in each period.
For all subjects, blood samples for the determination of ATR-101 plasma concentration were collected at pre-dose and 0.5, 1, 1.5, 2, 2.5, 3, 3.5, 4, 5, 6, 8, 12, 16, 24, 36, and 48 hours post-dose. PK parameters for plasma ATR-101 were calculated as follows: • AUC0-t: The area under the plasma concentration-time curve, from time 0 to the last measurable non-zero concentration, was calculated by the linear trapezoidal method. • AUC0-inf: The area under the plasma concentration-time curve from time 0 extrapolated to infinity. AUC0-inf was calculated as the sum of AUC0-t plus the ratio of the last measurable plasma concentration to the elimination rate constant. • AUC%extrap: Percent of AUC0-inf extrapolated, represented as
[formula] • Cmax: Maximum observed concentration. • tmax: Time to reach Cmax. If the maximum value occurred at more than one time point, tmax was defined as the first time point with this value. • ke1: Apparent first-order terminal elimination rate constant calculated from a semi-log plot of the plasma concentration versus time curve. […]

[1] = Treatment A (fasting with water), Maximum
[2] = Treatment A (fasting with water), Mean
[3] = Treatment A (fasting with water), Median
[4] = Treatment A (fasting with water), Minimum
[5] = Treatment A (fasting with water), individual subject, hydrochloride
[6] = Treatment B (fed with water), Maximum
[7] = Treatment B (fed with water), Mean
[8] = Treatment B (fed with water), Median
[9] = Treatment B (fed with water), Minimum
[10] = Treatment B (fed with water, high-fat breakfast), individual subject, hydrochloride
[11] = Treatment C (fasting with acidic beverage), Maximum
[12] = Treatment C (fasting with acidic beverage), Mean
[13] = Treatment C (fasting with acidic beverage), Median
[14] = Treatment C (fasting with acidic beverage), Minimum

**Q.** Which AUC0-inf [1] does the source give for `CC(C)c1cccc(C(C)C)c1NC(=O)NCC1(c2ccc(N(C)C)cc2)CCCC1` [ATR-101, N-(2,6-bis(1-methylethyl)phenyl)-N′-((1-(4-(dimethylamino)-phenyl)cyclopentyl)methyl)urea hydrochloride] here?
**A.** 5050 ng·h/mL

**Q.** And the AUC0-t [1]?
**A.** 4860 ng·h/mL

**Q.** What about the AUC% extrap [1] of the same compound?
**A.** 12.7%

**Q.** What about the Cmax [1] of the same compound?
**A.** 933 ng/mL

**Q.** What about the t1/2 [1] of the same compound?
**A.** 22.7 h

**Q.** And the tmax [1]?
**A.** 12.0 h

**Q.** What about the kel [1] of the same compound?
**A.** 0.0612

**Q.** And the AUC% extrap [2]?
**A.** 8.64%

**Q.** What about the kel [2] of the same compound?
**A.** 0.0406

**Q.** And the AUC% extrap [3]?
**A.** 9.43%

**Q.** What about the kel [3] of the same compound?
**A.** 0.0380

**Q.** And the AUC0-inf [4]?
**A.** 2430 ng·h/mL

**Q.** What about the AUC0-t [4] of the same compound?
**A.** 840 ng·h/mL

**Q.** And the AUC% extrap [4]?
**A.** 3.72%

**Q.** What about the Cmax [4] of the same compound?
**A.** 26.1 ng/mL

**Q.** And the t1/2 [4]?
**A.** 11.3 h

**Q.** And the tmax [4]?
**A.** 1.50 h

**Q.** What about the kel [4] of the same compound?
**A.** 0.0305

**Q.** And the AUC0-inf [5]?
**A.** 2740 and 4290 and 2630 and 2430 and 5050 and 2560 and 4700 and 4940 and 4370

**Q.** What about the AUC0-t [5] of the same compound?
**A.** 2450 and 3180 and 3810 and 2490 and 840 and 2200 and 4860 and 2330 and 1520 and 4100 and 4400 and 3880

**Q.** And the AUC% extrap [5]?
**A.** 10.6% and 6.68% and 11.2% (2×) and 5.32% and 9.43% and 3.72% and 8.82% and 12.7% and 4.61% and 10.8%

**Q.** And the Cmax [5]?
**A.** 509 ng/mL and 620 ng/mL and 807 ng/mL and 26.1 ng/mL and 612 ng/mL and 539 ng/mL and 306 ng/mL and 526 ng/mL and 486 ng/mL and 933 ng/mL and 842 ng/mL

**Q.** What about the tmax [5] of the same compound?
**A.** 2.5 h and 1.50 h and 12.0 h and 1.5 h and 3.00 h

**Q.** What about the kel [5] of the same compound?
**A.** 0.0378 and 0.0414 and 0.0347 and 0.0456 and 0.0380 and 0.0612 and 0.0404 and 0.0317 and 0.0531 and 0.0305 and 0.0318

**Q.** And the AUC0-inf [6]?
**A.** 14000 ng·h/mL

**Q.** What about the AUC0-t [6] of the same compound?
**A.** 13200 ng·h/mL

**Q.** And the AUC% extrap [6]?
**A.** 17.9%

**Q.** And the Cmax [6]?
**A.** 2060 ng/mL

**Q.** And the t1/2 [6]?
**A.** 30.7 h

**Q.** What about the tmax [6] of the same compound?
**A.** 5.00 h

**Q.** What about the kel [6] of the same compound?
**A.** 0.0603

**Q.** What about the AUC% extrap [7] of the same compound?
**A.** 8.00%

**Q.** What about the kel [7] of the same compound?
**A.** 0.0364

**Q.** And the AUC% extrap [8]?
**A.** 7.27%

**Q.** And the kel [8]?
**A.** 0.0366

**Q.** And the AUC0-inf [9]?
**A.** 3790 ng·h/mL

**Q.** What about the AUC0-t [9] of the same compound?
**A.** 3520 ng·h/mL

**Q.** What about the AUC% extrap [9] of the same compound?
**A.** 2.07%

**Q.** What about the Cmax [9] of the same compound?
**A.** 719 ng/mL

**Q.** What about the t1/2 [9] of the same compound?
**A.** 11.5 h

**Q.** What about the tmax [9] of the same compound?
**A.** 1.50 h

**Q.** And the kel [9]?
**A.** 0.0226

**Q.** And the AUC0-inf [10]?
**A.** 3790 and 6400 and 14000 and 5390 and 4540 and 7640 and 9000 and 7660 and 7670 and 5830 and 5820 and 4900 and 9990 and 7210

**Q.** What about the AUC0-t [10] of the same compound?
**A.** 3520 and 5930 and 13200 and 5280 and 4120 and 6890 and 8430 and 6810 and 6290 and 5420 and 5310 and 4740 and 9300 and 6570

**Q.** And the AUC% extrap [10]?
**A.** 7.07% and 7.35% and 5.87% and 2.07% and 9.33% and 9.87% and 6.38% and 1.1% and 17.9% and 7.19% and 8.76% and 3.35% and 6.89% and 8.80%

**Q.** And the Cmax [10]?
**A.** 1040 ng/mL and 1620 ng/mL and 2060 ng/mL and 1120 ng/mL and 848 ng/mL and 1340 ng/mL and 2000 ng/mL and 1210 ng/mL and 931 ng/mL and 719 ng/mL and 759 ng/mL and 1690 ng/mL and 993 ng/mL

**Q.** What about the t1/2 [10] of the same compound?
**A.** 19.3 h and 20.9 h and 16.9 h and 11.5 h and 25.1 h and 27.8 h and 18.0 h and 24.9 h and 30.7 h and 17.4 h and 23.9 h and 13.2 h and 17.7 h and 18.6 h

**Q.** What about the tmax [10] of the same compound?
**A.** 1.50 h and 2.50 h and 3.00 h and 5.00 h and 4.01 h and 3.57 h

**Q.** And the kel [10]?
**A.** 0.0359 and 0.0332 and 0.0410 and 0.0603 and 0.0276 and 0.0249 and 0.0385 and 0.0278 and 0.0226 and 0.0398 and 0.0290 and 0.0526 and 0.0392 and 0.0374

**Q.** What about the AUC0-inf [11] of the same compound?
**A.** 6970 ng·h/mL

**Q.** And the AUC0-t [11]?
**A.** 6430 ng·h/mL

**Q.** And the AUC% extrap [11]?
**A.** 21.5%

**Q.** What about the Cmax [11] of the same compound?
**A.** 1550 ng/mL

**Q.** And the t1/2 [11]?
**A.** 27.9 h

**Q.** And the tmax [11]?
**A.** 6.00 h

**Q.** And the kel [11]?
**A.** 0.0501

**Q.** What about the AUC% extrap [12] of the same compound?
**A.** 10.6%

**Q.** And the kel [12]?
**A.** 0.0377

**Q.** What about the AUC% extrap [13] of the same compound?
**A.** 8.95%

**Q.** And the kel [13]?
**A.** 0.0376

**Q.** And the AUC0-inf [14]?
**A.** 728 ng·h/mL

**Q.** What about the AUC0-t [14] of the same compound?
**A.** 572 ng·h/mL

**Q.** What about the AUC% extrap [14] of the same compound?
**A.** 3.84%

**Q.** And the Cmax [14]?
**A.** 19.8 ng/mL

**Q.** What about the t1/2 [14] of the same compound?
**A.** 13.8 h

From patent US20220117919A1, “ENHANCED BIOAVAILABILITY OF N-(2,6-BIS(1-METHYLETHYL)PHENYL)-N'-((1-(4-(DIMETHYLAMINO)-PHENYL)CYCLOPENTYL)METHYL)UREA HYDROCHLORIDE” (The Regents of the University of Michigan, priority 2015, published 2022)
